Legend:
[1] = tested on: human papillomavirus (HPV) lesions; conditions: cited from earlier work; for rate of local relapses: direct application on moles
skin incisions = experiment: healing tests (skin incisions); format: in vivo, albino rabbits of the New Zealand lineage; conditions: daily topical treatment of incisions
From the text: Thirty-six healthy adult albino rabbits of the New Zealand lineage weighing between 1.250 and 1.700 Kg were used for the healing tests. The animals were shaved and housed in individual cages at room temperature, in 12-hour light-dark cycles, with PURINA animal food and water ad libitum. The rabbits were anesthetized with local administration of lidocaine hydrochloride and inhalation of sulfuric ether. Four incisions were made on the skin of each rabbit until the subcutaneous layer was reached. A distance of 3 cm was maintained between each incision. The animals were divided into three groups. The group A, control, received NaCl 0.9% solution during the 14 days of treatment period. Group B was treated with rifamycin and group C received the ethanolic extract of barbatiman barks, resuspended in water (0.1 g mL^−1). The incisions remained open, and the rabbits were treated from the first day of the incision until the 14th day after the incision was made. On the 7th day, pieces were removed from ⅓ of the rabbits and part of the liver for histological analysis, and the animals were then killed. On 14th day, the remaining rabbits were killed, and the pieces and part of the liver were removed for histological analysis. […]

## O=C(O)C(Cl)(Cl)Cl [trichloroacetic acid, trichloroacetic acids]
[1]
  rate of local relapses: around 30%

## CC(C)Cn1cnc2c(N)nc3ccccc3c21 [Imiquimod]
[1]; condyloma acuminata of external and perianal genitalia
  cure rate: 50-56%
[1]; in vivo
  patients with headache, myalgia, and flu-like symptoms: less than 5%

## O=C(O)C(Cl)Cl [dichloroacetic acid, dichloroacetic]
[1]
  rate of local relapses: around 30%

## CO[C@H]1/C=C/O[C@@]2(C)Oc3c(C)c(O)c4c(O)c(cc(O)c4c3C2=O)NC(=O)/C(C)=C\C=C\[C@H](C)[C@H](O)[C@@H](C)[C@@H](O)[C@@H](C)[C@H](OC(C)=O)[C@@H]1C [rifamycin]
Skin incisions
  purulent secretion: present purulent secretion
